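Test compounds were applied to cells in 96-well plates for 48 hours at 5 doses. GI50 marks 50% less growth. TGI: total growth inhibition.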 Some results are limits rather than exact numbers.

Our source for the TGI and GI50 values is PubChem BioAssay (NCI).

Test systems include A498 renal; 786-0 renal; HS 578T breast; K-562 leukemia; OVCAR-5 ovarian; HCT-116 colon; SNB-75 CNS; SK-MEL-2 melanoma; EKVX NSCLC; KM12 colon.
What all share (test): growth of human tumour cells (NCI), 48 h

Take `COc1ccc(Oc2cc(NCCC(F)(F)F)c3ncc(-c4ccc(C(=O)NC5CC5)c(C)c4)n3n2)c(F)c1F`: the TGI in the test on A498 renal is 25.7 µM; with 786-0 renal, over 52.3 µM; in the test on HS 578T breast, 50.6 µM; with K-562 leukemia, over 100 µM; in the test on OVCAR-5 ovarian, over 100 µM; in the test with HCT-116 colon, over 54.5 µM. For the same molecule, the TGI with SNB-75 CNS was 31.1 µM; in the test on SK-MEL-2 melanoma it was 26.6 µM; in the test with EKVX NSCLC it was over 100 µM; in the test on KM12 colon, over 100 µM. Moreover, the GI50 with 786-0 renal is 1.05 µM; in the test on HS 578T breast, 1 µM; in the test with K-562 leukemia it was 10.2 µM; in the test with OVCAR-5 ovarian it was 24.9 µM; in the test with HCT-116 colon, under 0.01 µM; in the test with SNB-75 CNS, 1.61 µM. For the same molecule, the GI50 is 0.552 µM with SK-MEL-2 melanoma, 2.53 µM with EKVX NSCLC and 1.44 µM in the test on KM12 colon.
As for `COC(=O)[C@@H](OC)[C@@H]1Cc2cc3cc(OC4CC(OC5CC(O)C(O)C(C)O5)C(O)C(C)O4)c(C)c(O)c3c(O)c2C(=O)[C@H]1OC1CC(OC2CC(OC3CC(C)(O)C(O)C(C)O3)C(O)C(C)O2)C(O)C(C)O1` (some centres undefined), the GI50 in the test on A498 renal is 0.0277 µM; in the test with 786-0 renal it was 0.0302 µM; in the test on HS 578T breast, 0.0399 µM; with K-562 leukemia it was 0.0407 µM; in the test with OVCAR-5 ovarian, 0.0524 µM; in the test on HCT-116 colon, 0.0246 µM. For the same molecule, the GI50 was 0.0212 µM in the test on SNB-75 CNS, 0.0355 µM in the test on SK-MEL-2 melanoma, 0.0457 µM with EKVX NSCLC and 0.0404 µM in the test on KM12 colon. The TGI with A498 renal was 0.0717 µM; in the test on 786-0 renal it was over 16.5 µM; in the test on HS 578T breast, 0.223 µM; in the test with K-562 leukemia it was over 16.5 µM; in the test on OVCAR-5 ovarian it was over 16.5 µM; with HCT-116 colon, over 16.5 µM. Also, the TGI in the test on SNB-75 CNS is 0.0487 µM; in the test with SK-MEL-2 melanoma, 0.0777 µM; in the test with EKVX NSCLC it was 1.22 µM; in the test on KM12 colon it was 3.72 µM.
Consider `Cc1ccc(C)c2c(N=Nc3ccccc3[N+](=O)[O-])c(O)[nH]c12`, for which the TGI in the test with A498 renal, in the test with 786-0 renal, with HS 578T breast, with K-562 leukemia, in the test on OVCAR-5 ovarian and in the test on HCT-116 colon was over 100 µM throughout. Further, the TGI with SNB-75 CNS, with SK-MEL-2 melanoma, with EKVX NSCLC and in the test on KM12 colon was over 100 µM in each case.
As to `CC(=O)c1cccc(NC(=O)c2ccc(NC3=C(Cl)C(=O)N(Cc4ccccc4)C3=O)cc2)c1`, the GI50 is 19.6 µM in the test with A498 renal; 16.5 µM in the test on 786-0 renal; 22.6 µM with HS 578T breast; 8.37 µM in the test on K-562 leukemia; over 100 µM in the test on OVCAR-5 ovarian; 12.6 µM with HCT-116 colon. In addition, the GI50 is 30.1 µM with SNB-75 CNS, 2.38 µM with SK-MEL-2 melanoma, 30.3 µM with EKVX NSCLC and 20 µM with KM12 colon. In addition, the TGI in the test with A498 renal is 60.4 µM; with 786-0 renal, 36.4 µM; in the test on HS 578T breast it was 88.7 µM; in the test on K-562 leukemia, over 100 µM; with OVCAR-5 ovarian, over 100 µM; in the test on HCT-116 colon, 25.9 µM. Moreover, the TGI was over 100 µM with SNB-75 CNS, 11.5 µM with SK-MEL-2 melanoma, 97.3 µM with EKVX NSCLC and 43 µM in the test on KM12 colon.
Turning to `Cc1ncc(-c2ccnc(Nc3ccc(S(C)(=O)=O)cc3)n2)n1C(C)C`, the GI50 with A498 renal is 0.647 µM; with 786-0 renal, 0.922 µM; in the test on HS 578T breast, 0.977 µM; with K-562 leukemia, 1.59 µM; in the test with OVCAR-5 ovarian it was 1.09 µM; in the test on HCT-116 colon it was 0.275 µM. Moreover, the GI50 was 0.377 µM with SNB-75 CNS, 1.38 µM with SK-MEL-2 melanoma, 1.56 µM with EKVX NSCLC and 0.527 µM in the test with KM12 colon. The TGI was 2.55 µM with A498 renal; over 10 µM with 786-0 renal; 5.33 µM in the test with HS 578T breast; over 10 µM in the test with K-562 leukemia; over 8.88 µM in the test on OVCAR-5 ovarian; over 10 µM with HCT-116 colon. Moreover, the TGI in the test with SNB-75 CNS is 2.58 µM; in the test with SK-MEL-2 melanoma, 3.17 µM; with EKVX NSCLC it was 5.54 µM; in the test on KM12 colon, 2.33 µM.
Consider `CN(C)c1ccc(C(=C2C=CC(=[N+](C)C)C=C2)c2ccccc2Cl)cc1`, for which the GI50 in the test on A498 renal is 0.289 µM; with 786-0 renal it was 0.341 µM; in the test on HS 578T breast, 0.207 µM; in the test on K-562 leukemia, 0.244 µM; with OVCAR-5 ovarian it was 0.408 µM; with HCT-116 colon, 0.155 µM. The GI50 in the test with SNB-75 CNS was 0.238 µM; in the test with SK-MEL-2 melanoma, 0.339 µM; with EKVX NSCLC, 0.162 µM; in the test with KM12 colon, 0.283 µM. Further, the TGI is 1.04 µM in the test on A498 renal; 1.13 µM in the test with 786-0 renal; 2.78 µM in the test on HS 578T breast; 3.79 µM in the test on K-562 leukemia; 1.48 µM with OVCAR-5 ovarian; 0.605 µM in the test with HCT-116 colon. Further, the TGI with SNB-75 CNS turned out to be 0.851 µM; with SK-MEL-2 melanoma, 0.899 µM; with EKVX NSCLC, 1.45 µM; in the test on KM12 colon, 0.929 µM.
Take `Cc1cc2c(cc1C)[n+](Cc1ccc3ccccc3n1)cn2Cc1ccc2ccccc2n1`: the GI50 in the test with A498 renal is 1.04 µM; in the test with 786-0 renal, 1.54 µM; in the test on HS 578T breast it was 1.94 µM; in the test with K-562 leukemia, 0.527 µM; with OVCAR-5 ovarian, 1.3 µM; in the test on HCT-116 colon, 0.407 µM. The GI50 was 1.43 µM in the test with SNB-75 CNS, 1.57 µM in the test on SK-MEL-2 melanoma, 2.29 µM with EKVX NSCLC and 0.568 µM in the test with KM12 colon. For the same molecule, the TGI was 2.36 µM with A498 renal; 3.03 µM in the test on 786-0 renal; 5.48 µM in the test on HS 578T breast; 3 µM in the test on K-562 leukemia; 6.89 µM in the test with OVCAR-5 ovarian; 1.74 µM in the test with HCT-116 colon. The TGI was determined as 3.87 µM in the test with SNB-75 CNS, 3.12 µM in the test with SK-MEL-2 melanoma, 11.1 µM in the test on EKVX NSCLC and 2.06 µM in the test on KM12 colon.
Regarding `CC(=O)/C(=C\c1c(-c2ccccc2)[nH]c2ccccc12)S(=O)(=O)c1ccccc1`, the GI50 with A498 renal was 5.44 µM; with 786-0 renal, 1.62 µM; in the test on HS 578T breast it was 3.81 µM; with K-562 leukemia it was 0.406 µM; in the test on OVCAR-5 ovarian it was 2.01 µM; with HCT-116 colon, 0.727 µM. Further, the GI50 is 1.59 µM with SNB-75 CNS, 1.39 µM with SK-MEL-2 melanoma, 3.22 µM in the test with EKVX NSCLC and 1.01 µM in the test with KM12 colon. The TGI in the test on A498 renal is 15.9 µM; in the test with 786-0 renal, 3.44 µM; with HS 578T breast, over 93.8 µM; with K-562 leukemia it was 2.43 µM; with OVCAR-5 ovarian, 5.46 µM; in the test on HCT-116 colon it was 2 µM. Moreover, the TGI with SNB-75 CNS is 14.6 µM; in the test on SK-MEL-2 melanoma it was 5.3 µM; with EKVX NSCLC, over 100 µM; with KM12 colon, 2.65 µM.
